Consider 37 substances from US7666817B2, “Cellular libraries of peptide sequences (CLiPS) and methods of using the same” (The Regents of the University of California, priority 2005, dated 2010).

The subject of data set [1] is tobacco etch virus protease (TEV). In words: Dual-signal CLiPS, TEV cleavage of cell-surface displayed substrates. The data set is classed as biochemical. The protocol: Construction of a control plasmid (pBSGXP2) expressing a fusion of the streptavidin-binding peptide (WCHPMWEVMCLR) (SEQ ID NO:34) (Rice et. al. 2006) and a GGSGGS (SEQ ID NO:01) sequence flanked by flexible linkers on the amino terminus of circularly permuted outer membrane X (CPX) and a binding peptide of SLP-76 (P2) on the carboxy-terminus was performed using primers 1, 2, and 3 with primers 4 and 5. […] Products were digested with SfiI and ligated to similarly digested pBAD33. A substrate library (pBS5XP2) of the form X5, where X is any amino acid, was constructed using PCR with a synthetic oligonucleotide incorporating NNS codons (primer 9) along with primers 1 and 8 (Table 2). The product was digested with SfiI and ligated into a similarly digested pBAD33 plasmid. Transformation of the plasmid library into electrocompetent MC1061 yielded 6×10^7 colony forming units.
A second substrate library (pBSToptP2) was created using primer 10 with primers 1 and 8. The product was digested with SfiI and ligated into a similarly digested pBAD33 plasmid. Transformation of the plasmid library into electrocompetent MC1061 yielded 5×10^7 colony forming units.
Streptavidin conjugated phycoerythrin (SAPE) was used for labeling streptavidin binding affinity ligand on the N- and C-termini of CPX (FIG. 15). […] Of the three fluorescent proteins AlajGFP-Mona gave a higher fluorescence and was used for all labeling. The resulting CPX scaffold required a 3 hr induction time due to the additional peptide that was fused to the C-terminus. For optimum labeling of cells without protease reaction, the cells were incubated for 1 hr at 22° C. with SAPE (50 nM) and AlajGFPM (250 nM). […] For the described example below 1 hr incubation was used.
(§1) For screening and clone analysis, overnight cultures were subcultured by dilution into fresh medium (1:50) and grown for 2 hrs at 37° C. The subculture was induced with 0.1% arabinose and incubated with shaking at room temperature for 3 hrs. Cell aliquots were washed with PBS (pH 8.0), and optical density at 600 nm (OD600) was measured to estimate cell concentration. Cells (10^8) were pelleted by centrifugation, the supernatant was removed, and the cells were resuspended in reaction buffer (10 μL). Following addition of the enzyme, the reaction mixture was incubated at room temperature on a rotary shaker. Cells were removed and diluted 100-fold in PBS to stop the reaction, pelleted by centrifugation, and resuspended in PBS containing SA-PE (50 nM) and AlajGFP-MONA. After incubation at room temperature (1 hr), cells were washed with PBS and analyzed or sorted using a FACSAria™ cell sorter (Becton, Dickinson and Company).
(§2) Specifically, for each sample, conversion was determined by flow cytometry analyses using the relationship
(§3) [formula] where (FL−) is the fluorescence after incubating without enzyme, (FL+) is fluorescence after incubation with enzyme, and (FL0) is fluorescence of unlabeled cells. For the recombinant FRET protein reactions, conversion was calculated by dividing the ratiometric FRET signal (yellow fluorescence/cyan fluorescence) by the FRET ratio that results from complete cleavage (Felber et al., Biotechniques 36:878-85 (2004)). For synthetic peptide reactions, conversion was calculated by dividing the fluorescence increase by the fluorescence change due to complete hydrolysis. The reported enteropeptidase KM for the physiological substrate tripsinogen is 17 μM (Light et al., J Biol Chem 259:13195-8 (1984)), but 600 μM for short DDDDK (SEQ ID NO:02) peptides (Lu et al., J Mol Biol 292:361-73 (1999)). Given KM for short peptides is much larger than the substrate concentrations that were used (<5 μM), the Michaelis-Menton model simplifies to
The reaction buffer for TEV assays was 50 mM Tris-Cl pH 8.0 supplemented with 20. mM NaCl and 2 mM CaCl2. […]

Data set [2] concerns enteropeptidase. To be noted: reported values (Light et al. 1984; Lu et al. 1999); cited from earlier work.
The target of data set [3] is T1, enteropeptidase (catalytic subunit light chain) (Bos taurus, UniProt P98072).
T1 construct: the catalytic subunit light chain of enteropeptidase (EP) (New England Biolabs); purchased New England Biolabs
In words: CLiPS whole-cell assay, enteropeptidase cleavage of cell-surface displayed substrates (FACS). The data set is classed as biochemical. The conditions noted are these: for change in mean fluorescence intensity after incubation with enteropeptidase before SAPE labeling: E. coli displaying reporter-substrate, flow cytometry. The protocol:
For screening and clone analysis, overnight cultures were subcultured by dilution into fresh medium (1:50) and grown for 2 hours. The subculture was then induced with 0.04% arabinose and incubated with shaking at room temperature. Cell aliquots were harvested washed with PBS (pH 8.0) and absorbance at 600 nm (OD600) was measured to estimated density. Cells were pelleted by centrifugation, the supernatant removed and the cells resuspended in reaction buffer ([…]). The enzyme was added, and the reaction mixture was incubated at room temperature on rotary shaker (60 rpm). To stop the reaction cells were removed and diluted 100-fold in PBS, pelleted by centrifugation, and resuspended in PBS containing SA-PE (50 nM). After incubation at room temperature (1 hr), cells were washed with PBS and analyzed or sorted using a FACSAria™ cell sorter.
For enteropeptidase cleavage assays, cultures were induced for 2 hr. The reaction buffer for enteropeptidase was 50 mM Tris-Cl pH 8.0 supplemented with 20 mM NaCl and 2 mM CaCl2. […]
as §2
[formula] where (FL−) is the fluorescence after incubating without enzyme, (FL+) is fluorescence after incubation with enzyme, and (FL0) is fluorescence of unlabeled cells. For the recombinant FRET protein reactions, conversion was calculated by dividing the ratiometric FRET signal (yellow fluorescence/cyan fluorescence) by the FRET ratio that results from complete cleavage (Felber et al., Biotechniques 36:878-85 (2004)). For synthetic peptide reactions, conversion was calculated by dividing the fluorescence increase by the fluorescence change due to complete hydrolysis. […]
Given the utility of fluorescence-activated cell sorting (FACS) as a quantitative library screening tool, peptidase activity was assayed by displaying reporter-substrates on the surface of Esherichia coli (FIG. 1, panel A). […] In this way, protease activity towards a given substrate would be detectable by monitoring whole-cell fluorescence using FACS. […]

A further data set has as its target T2, MMP-1 (Homo sapiens, UniProt P03956).
T2 sequence (P03956 100-469): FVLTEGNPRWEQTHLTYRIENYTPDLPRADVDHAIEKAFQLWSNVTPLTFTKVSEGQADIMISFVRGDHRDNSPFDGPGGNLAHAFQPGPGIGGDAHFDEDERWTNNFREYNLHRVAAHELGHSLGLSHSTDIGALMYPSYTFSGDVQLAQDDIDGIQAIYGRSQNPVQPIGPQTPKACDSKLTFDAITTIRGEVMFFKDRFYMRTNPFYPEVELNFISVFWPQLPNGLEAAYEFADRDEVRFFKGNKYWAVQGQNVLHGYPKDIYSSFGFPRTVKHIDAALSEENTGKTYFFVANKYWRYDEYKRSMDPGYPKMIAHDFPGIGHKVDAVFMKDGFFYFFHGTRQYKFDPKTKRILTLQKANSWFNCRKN
The data set is described as follows: Dual-signal CLiPS, MMP-1 cleavage of cell-surface displayed substrates. It is filed as biochemical. To be noted: MMP substrates from sort 4 of 5X library; cells incubated with 1.5 pM MMP-1. The method, then: as §1, §2, §3
The MMP-1 assays were performed by incubating cells with 1.5 pM MMP-1. Sorts for hydrolysis were performed after 16 hrs, 19 hrs, and 16 hrs for sorts 1, 3 and 5, respectively (FIGS. 9 and 10). Enrichment after 4 sorts can be seen by the fluorescence shift due to MMP-1 incubation (FIG. 10) and this population was sorted a final time for hydrolyzed substrates. These clones were sequences and assayed for conversion (Table 8). […] Many of these sequences have been reported as MMP-1 substrates. However, substrates of MMP-1 with amino acids M and L at positions P1 and P3 have not previously been reported.

Data set [4] deals with T3, enteropeptidase (Bos taurus, UniProt P98072).
T3 construct: the catalytic subunit light chain of enteropeptidase (EP) (New England Biolabs); purchased New England Biolabs
In words: Enteropeptidase cleavage of soluble CyPet-YPet FRET fusion protein substrates (fluorimetry). The data set is classed as biochemical. The conditions noted are these: CyPet-YPet fusion protein substrate ~0.5 μM, 0.29 nM enteropeptidase. An excerpt:
Substrates EP2.1, EP4.1, EP4.2, and EP4.3 identified for enteropeptidase by CLiPS were amplified with YPet using reverse primer 7 with forward primers 8, 9, 10, and 11, respectively (Table1). The canonical EP substrate was amplified as a fusion to YPet using primers 7 and 12 (Table 1). As a negative control, a GSGSGS (SEQ ID NO:18) linker was substituted for the six amino acid substrate sequence using primers 7 and 13 (Table 1). These products were digested with kpnI and sphI and ligated to similarly digested plasmid containing CyPET to yielded plasmids pBC21Y, pBC41Y, pBC42Y, pBC43Y pBCEPY and pBCGSY.
Overnight cultures of MC1061 transformed with the FRET substrate encoding expression vectors described above were subcultured 1:50 and grown for 2 hrs. […] Reactions were performed in 100 μL of enteropeptidase reaction buffer with ˜0.5 μM fusion protein, as determined using the extinction coefficient of YPet at 514 nm (Nguyen et al., Nat Biotechnol 23:355-60 (2005)) and Beer's law. Enteropeptidase was added to each reaction to a final concentration of 0.29 nM and fluorescence emission at 475 nm (cyan) and 527 nm (yellow) was monitored upon excitation at 433 nm using a Safire fluorimeter (Tecan).
[formula] where (FL−) is the fluorescence after incubating without enzyme, (FL+) is fluorescence after incubation with enzyme, and (FL0) is fluorescence of unlabeled cells. […]

Setting [5] is: TEVopt library clones, 2 hour incubation with 2 units of TEV, Guava EasyCyte plate reading cytometer.
[6] abbreviates: top TEV substrates from 5X library, 1 hr with 10 units of TEV.

Chain of tobacco etch virus protease (TEV) (P04517 2038-2255 limits assumed): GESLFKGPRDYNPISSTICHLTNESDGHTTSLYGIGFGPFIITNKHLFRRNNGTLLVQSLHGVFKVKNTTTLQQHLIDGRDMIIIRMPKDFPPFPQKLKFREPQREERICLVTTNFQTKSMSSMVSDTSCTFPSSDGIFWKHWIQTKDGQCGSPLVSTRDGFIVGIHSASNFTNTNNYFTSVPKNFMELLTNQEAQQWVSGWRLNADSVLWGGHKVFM
T1 sequence (P98072 801-1035 limits assumed): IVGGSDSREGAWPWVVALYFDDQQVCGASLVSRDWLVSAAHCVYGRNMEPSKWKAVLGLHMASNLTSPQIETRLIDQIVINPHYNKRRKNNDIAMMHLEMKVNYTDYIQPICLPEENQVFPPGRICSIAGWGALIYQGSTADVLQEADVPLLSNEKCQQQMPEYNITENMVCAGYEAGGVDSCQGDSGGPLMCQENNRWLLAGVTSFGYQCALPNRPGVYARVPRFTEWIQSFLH
Chain of enteropeptidase (P98072 801-1035 limits assumed): as above
T3 sequence (P98072 801-1035 limits assumed): as above

ALYIQG [A3]: the “% Conversion” value in data set [1] (setting [5]) was determined as 92.212%.

Turning to “DDDDKGGQS [Canonical, reference compound]”, the Km with enteropeptidase [2] was 600 µM. Moreover, the “change in mean fluorescence intensity after incubation with enteropeptidase before SAPE labeling” value in data set [3] was “roughly twenty-fold decrease”. As to DLYWQG [C3], the “% Conversion” value in data set [1] (setting [5]) came out at 73.3768%.

Take DRELY [F04]: in data set [1] (setting [6]), the “% Conversion” value is recorded as 79%.

For the substance DVYVQG [A2], the “% Conversion” value in data set [1] (setting [5]) came out at 52.6409%.

Regarding EEAVL [H07], the “% Conversion” value in data set [1] (setting [6]) is 71%. In the case of EEELY [B02], the “% Conversion” value in data set [1] (setting [6]) was found to be 72%.

Consider ELYAQG [C5], for which the “% Conversion” value in data set [1] (setting [5]) was found to be 58.8389%. ELYWQG [C4]: the “% Conversion” value in data set [1] (setting [5]) was 68.9173%. Still for that read-out and setting: in the case of ENLYFQS [Control, reference compound] it was 66.3577%. On the same count and under the same terms, in the case of EVYVQG [B6] it was 61.0145%; in that of FLYLQG [A1], 91.8387%. Consider GEDLL [F09], for which, in data set [1] (setting [6]), the “% Conversion” value amounted to 71%. For the substance GGQSGQ, the “change in mean fluorescence intensity after incubation with enteropeptidase before SAPE labeling” value in data set [3] was “minimal change in fluorescence”. LEQLI [B09]: in data set [1] (setting [6]), the “% Conversion” value worked out at 76%. Take LLYIQG [D4]: the “% Conversion” value in data set [1] (setting [5]) amounted to 51.6773%. For MPLVM, the % Conversion at MMP-1 was 65.9%. Substance MPVVL yielded a % Conversion on MMP-1 of 42.8%.

Consider PEVIY [C10], for which the “% Conversion” value in data set [1] (setting [6]) is 81%. On to PMAVI, for which the % Conversion at MMP-1 turned out to be 69.9%.

On to PMAVT, for which, at MMP-1, the % Conversion turned out to be 50.4%. The same measure, in the same setting: under PVAMR stands 72.9%; under PVNVV, 78.9%; under PVPMV, 49.6%. For the substance QLYFQS [C6], in data set [1] (setting [5]), the “% Conversion” value was 61.7894%. For SLYVQG [E4], the “% Conversion” value in data set [1] (setting [5]) is given as 86.3465%. Still for that read-out and setting: in the case of SLYWQG [D5] it was 71.6599%. As for SSGDRMWGG [EP 4.3], the “second order rate constant (kcat/KM) relative to canonical substrate DDDDK” value in data set [3] (cell-surface displayed substrates, time-dependent conversion fit to Michaelis-Menton model) was 13 fold. Besides, the “cleavage rate relative to DDDDK” value with enteropeptidase [4] is given as 17 fold. As for TPLAL, on MMP-1, the % Conversion amounted to 41.7%. For the substance VLYLQS [A4], in data set [1] (setting [5]), the “% Conversion” value is on record as 85.4432%. Still for that read-out and setting: under VLYTQG [E6] stands 54.8951%. Consider VPVNM, for which the % Conversion at MMP-1 is 76%. Turning to VPVVM, the % Conversion at MMP-1 turned out to be 36.6%.

On to WEPLW [H08], for which the “% Conversion” value in data set [1] (setting [6]) came out at 73%.

Consider WESLY [E11], for which the “% Conversion” value in data set [1] (setting [6]) is 77%. WLYLQG [D1]: the “% Conversion” value in data set [1] (setting [5]) came out at 68.0478%. Regarding “tripsinogen: physiological substrate of enteropeptidase”, in the data set with enteropeptidase [2], the Michaelis constant (Km) was 17 µM.
